# Where two headings read alike, the source gives them in different places.
# Columns and labels:
# L. major = conditions: read-out: IC50 against L. major; cited from earlier work
# Human GR = conditions: 1.5 nM enzyme, 1 mM GSSG; steady state kinetic studies; read-out: IC50 Human GR, substrate GSSG; cited from earlier work
# S. mansoni = tested on: S. mansoni; parameters: method as in PMID 17579510; conditions: after multiple doses; cited from earlier work
# Human TrxR [1] = conditions: 2 nM enzyme, 3 mM DTNB; steady state kinetic studies; read-out: IC50 Human TrxR, substrate DTNB; cited from earlier work
# L. infantum TR = conditions: read-out: Ki L. infantum TR, substrate TS2; 40 nM enzyme, 50–400 µM TS2; steady state; cited from earlier work
# B. pahangi TrxR = B. pahangi TrxR enzyme assay, DTNB reduction (original data); assay type: biochemical, Brugia pahangi; conditions: 20 nM enzyme, 3 mM DTNB; after 15 min preincubation; read-out: IC50 B. pahangi TrxR, substrate DTNB (original data)
# Method: Enzymes were prepared in E. coli as described. Assays were performed at 25 °C in 0.1 M potassium phosphate (pH 7.4), 10 mM EDTA using 100 μM NADPH and 3 mM dithiobis(2-nitrobenzoic acid) (DTNB). […] The increase in A412 during the first 3 min was recorded upon DTNB addition. The reaction was done in triplicate.
# L. amazonensis = conditions: read-out: IC50 against L. amazonensis; cited from earlier work
# [2] = target: human thioredoxin reductase (TrxR); parameters: method as in PMID 9685351; conditions: cited from earlier work
# Human TrxR [3] = target: Human TrxR; parameters: method as in PMID 9685351; conditions: 1.7 nM enzyme, steady state kinetic studies, read-out: Ki Human TrxR, substrate E. coli TrxS2, cited from earlier work
# S. mansoni TGR [4] = target: T1, S. mansoni TGR (Schistosoma mansoni, UniProt Q962Y6); parameters: method as in PMID 17579510; conditions: 20 nM enzyme, 3 mM DTNB; after 15 min preincubation; read-out: IC50 S. mansoni TGR, substrate DTNB; cited from earlier work
# T1 construct: made in house; host or cells: E. coli
# T1 sequence (Q962Y6 1-598): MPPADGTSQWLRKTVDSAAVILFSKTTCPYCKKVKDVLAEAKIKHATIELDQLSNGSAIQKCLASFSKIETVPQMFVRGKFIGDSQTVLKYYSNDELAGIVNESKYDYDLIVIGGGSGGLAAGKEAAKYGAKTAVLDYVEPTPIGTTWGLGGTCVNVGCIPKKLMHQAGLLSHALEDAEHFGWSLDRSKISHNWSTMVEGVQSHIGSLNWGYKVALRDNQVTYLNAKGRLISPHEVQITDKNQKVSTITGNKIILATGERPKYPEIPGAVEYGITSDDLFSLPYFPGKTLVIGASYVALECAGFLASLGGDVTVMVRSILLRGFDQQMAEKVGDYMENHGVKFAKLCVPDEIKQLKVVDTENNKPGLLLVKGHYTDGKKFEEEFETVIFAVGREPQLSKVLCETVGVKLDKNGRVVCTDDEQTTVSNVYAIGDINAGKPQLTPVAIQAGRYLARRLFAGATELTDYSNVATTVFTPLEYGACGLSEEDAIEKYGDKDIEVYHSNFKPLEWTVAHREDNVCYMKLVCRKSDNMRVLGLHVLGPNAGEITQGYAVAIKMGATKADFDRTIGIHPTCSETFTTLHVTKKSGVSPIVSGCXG
# S. mansoni TGR [5] = target: T1, S. mansoni TGR; parameters: method as in PMID 17579510; conditions: 20 nM enzyme, 8 mM substrate; after 15 min preincubation; read-out: IC50 S. mansoni TGR, substrate HED + GSSG; cited from earlier work
# S. mansoni TGR [6] = target: T1, S. mansoni TGR; parameters: method as in PMID 17579510; conditions: 20 nM enzyme, 100 µM GSSG; after 15 min preincubation; read-out: IC50 S. mansoni TGR, substrate GSSG; cited from earlier work
# mitochondrial TrxR2 = tested on: mitochondrial TrxR2; parameters: method as in PMID 15458826; conditions: 2 nM enzyme, 3 mM DTNB; steady state; read-out: IC50 TrxR, substrate DTNB (mitochondrial TrxR2 instead of cytosolic TrxR1); cited from earlier work
Compound,IC50 (L. major),IC50 (Human GR),reduction of worm burdens in S. mansoni infected mice (S. mansoni),IC50 (Human TrxR [1]),Ki (L. infantum TR),IC50 (B. pahangi TrxR),IC50 (L. amazonensis),Ki [2],Ki (Human TrxR [3]; at 50 TrxS2),Ki (Human TrxR [3]; at 75 TrxS2),IC50 (S. mansoni TGR [4]),IC50 (S. mansoni TGR [5]),IC50 (S. mansoni TGR [6]),IC50 (mitochondrial TrxR2)
CC(=O)OC[C@H]1O[C@@H]([S-])[C@H](OC(C)=O)[C@@H](OC(C)=O)[C@@H]1OC(C)=O.CCP(CC)CC.[Au+] [Auranofin],70 nM,40000 nM,~ 60%,20 nM,155 nM,0.5 nM,270 nM,4 nM,2 nM,3 nM,–,–,–,–
O=C(O)CC([S-])C(=O)O.[Au+] (centres unmarked) [Aurothiomalate],–,–,–,–,–,–,–,–,–,–,90 nM,50 nM,50 nM,280 nM
